Key:
[1] = system: MDA-MB-231 cells; assay: Cell proliferation assay (CellTiter-Glo), MDA-MB-231; format: cell-based; details: Homo sapiens, MDA-MB-231, 72 h, 72 h treatment, Celltiter-Glo luminescence
In short: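 MDA-MB-231 (RPMI-1640/10% FBS) and EVSA-T (MEM/10% FBS) cells, 10000 cells/well, exposed 72 h to compound at […]. Viability read by CellTiter-Glo luminescence after 15 min at room temperature. IC50 from control-normalised curve fitting.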

[2] = system: EVSA-T cells; assay: Cell proliferation assay (CellTiter-Glo), EVSA-T; format: cell-based; details: Homo sapiens, EVSA-T, 72 h, 72 h treatment, Celltiter-Glo luminescence
Method: Example 238: Cell Proliferation Assay
MDA-MB-231 and EVSA-T cells (10000 cells/well) were plated onto 96-well plates (Corning, Cat #3917) in 95 μL of medium (RPMI-1640 containing 10% FBS and MEM containing 10% FBS, respectively). Compounds with various concentrations ([…]) were added to the wells. After treatment for 72 h, 30 μL of Celltiter-Glo reagent (Promega, Cat #G7573) was added and incubated at room temperature for 15 min, then the luminescent signal was determined using a microplate reader (Biotek, SynergyH1). The inhibitor dose-response curves were analyzed using normalized IC50 regression curve fitting with control based normalization.

SMILES | IC50 [1] [nM] | IC50 [2] [nM]
C[C@@H]1CN(CC(=O)N2CC(C)(C)c3c2cc(Cc2ccc(F)cc2)n2ccnc32)[C@@H](CN2CCOC[C@H]2C)CN1 [Example 24, 1-(5-(4-fluorobenzyl)-9,9-dimethyl-8,9-dihydro-7H-imidazo[1,2-a]pyrrolo[3,2-c]pyridin-7-yl)-2-((2R,5R)-5-methyl-2-(((R)-3-methylmorpholino)methyl)piperazin-1-yl)ethan-1-one] | 240 | –
C[C@@H]1CN(CC(=O)N2CC(C)(C)c3c2cc(Cc2ccc(F)cc2)c2nc(P(C)(C)=O)nn32)[C@@H](CN2CCOC[C@H]2C)CN1 [Compound 209, 1-(2-(dimethylphosphoryl)-4-(4-fluorobenzyl)-8,8-dimethyl-7,8-dihydro-6H-pyrrolo[2,3-e][1,2,4]triazolo[1,5-a]pyridin-6-yl)-2-((2R,5R)-5-methyl-2-(((R)-3-methylmorpholino)methyl)piperazin-1-yl)ethan-1-one] | 2160 | –
C[C@@H]1CN(CC(=O)N2CC(C)(C)c3c2cc(Cc2ccc(F)cc2)c2nc(C(=O)O)nn32)[C@@H](CN2CCOC[C@H]2C)CN1 [Compound 197, 4-(4-fluorobenzyl)-8,8-dimethyl-6-(2-((2R,5R)-5-methyl-2-(((R)-3-methylmorpholino)methyl)piperazin-1-yl)acetyl)-7,8-dihydro-6H-pyrrolo[2,3-e][1,2,4]triazolo[1,5-a]pyridine-2-carboxylic acid] | > 10000 | –
C[C@@H]1CN(CC(=O)N2CC(C)(C)c3c2cc(Cc2ccc(F)cc2)c2nn(CC(C)(C)O)c(=O)n32)[C@@H](CN2CC3CCC2CO3)CN1 (stereo partly drawn) [Compound 287, 6-(2-((2R,5R)-2-((2-oxa-5-azabicyclo[2.2.2]octan-5-yl)methyl)-5-methylpiperazin-1-yl)acetyl)-4-(4-fluorobenzyl)-2-(2-hydroxy-2-methylpropyl)-8,8-dimethyl-2,6,7,8-tetrahydro-1H-pyrrolo[2,3-e][1,2,4]triazolo[4,3-a]pyridin-1-one] | 480 | –
Cc1nc(CO)c2c(Cc3ccc(F)cc3)cc3c(n12)C(C)(C)CN3C(=O)CN1C[C@@H](C)NC[C@@H]1CN1CCOC[C@H]1C [Compound 125, 1-(4-(4-fluorobenzyl)-3-(hydroxymethyl)-1,8,8-trimethyl-7,8-dihydro-6H-imidazo[1,5-a]pyrrolo[2,3-e]pyridin-6-yl)-2-((2R,5R)-5-methyl-2-(((R)-3-methylmorpholino)methyl)piperazin-1-yl)ethan-1-one] | 200 | –
C[C@@H]1CN(CC(=O)N2CC(C)(C)c3c2cc(Cc2ccc(F)cc2)c2nn(C(CO)CO)c(=O)n32)[C@@H](CN2CCOC[C@H]2C)CN1 [Compound 268, 2-(1,3-dihydroxypropan-2-yl)-4-(4-fluorobenzyl)-8,8-dimethyl-6-(2-((2R,5R)-5-methyl-2-(((R)-3-methylmorpholino)methyl)piperazin-1-yl)acetyl)-2,6,7,8-tetrahydro-1H-pyrrolo[2,3-e][1,2,4]triazolo[4,3-a]pyridin-1-one] | 350 | –
C[C@@H]1CN(CC(=O)N2CC(C)(C)c3c2cc(Cc2ccc(F)cc2)c2nnc(C(F)F)n32)[C@@H](CN2CCOC[C@H]2C)CN1 [Compound 157, 1-(1-(difluoromethyl)-4-(4-fluorobenzyl)-8,8-dimethyl-7,8-dihydro-6H-pyrrolo[2,3-e][1,2,4]triazolo[4,3-a]pyridin-6-yl)-2-((2R,5R)-5-methyl-2-(((R)-3-methylmorpholino)methyl)piperazin-1-yl)ethan-1-one] | 200 | –
CC(=O)N1CCN(C[C@H]2CN[C@H](C)CN2CC(=O)N2CC(C)(C)c3c2cc(Cc2ccc(F)cc2)c2nc(C(F)(F)F)cn32)[C@H](C)C1 [Compound 174, 2-((2R,5R)-2-(((R)-4-acetyl-2-methylpiperazin-1-yl)methy 1)-5-methylpiperazin-1-yl)-1-(4-(4-fluorobenzyl)-8,8-dimethyl-2-(trifluoromethyl)-7,8-dihydro-6H-imidazo[1,2-a]pyrrolo[2,3-e]pyridin-6-yl)ethan-1-one] | 450 | –

Further compounds by falling IC50 [1], results first:

IC50 [1] [nM] | SMILES | IC50 [2] [nM]
195 | [2H]C([2H])([2H])NC(=O)c1nc2c(Cc3ccc(F)cc3)cc3c(n2n1)C(C)(C)CN3C(=O)CN1C[C@@H](C)NC[C@@H]1CN1CCOC[C@H]1C [Compound 258, 4-(4-fluorobenzyl)-8,8-dimethyl-N-(methyl-d3)-6-(2-((2R,5R)-5-methyl-2-(((R)-3-methylmorpholino)methyl)piperazin-1-yl)acetyl)-7,8-dihydro-6H-pyrrolo[2,3-e][1,2,4]triazolo[1,5-a]pyridine-2-carboxamide] | –
180 | C[C@@H]1CN(CC(=O)N2CC(C)(C)c3c2cc(Cc2ccc(F)cc2)c2nccnc32)[C@@H](CN2CCOC[C@H]2C)CN1 [Example 26, 1-(5-(4-fluorobenzyl)-9,9-dimethyl-8,9-dihydro-7H-pyrrolo[3,2-f]quinoxalin-7-yl)-2-((2R,5R)-5-methyl-2-(((R)-3-methylmorpholino)methyl)piperazin-1-yl)ethan-1-one] | –
80 | C[C@@H]1CN(CC(=O)N2CC(C)(C)c3c2cc(Cc2ccc(F)cc2)c2ncnn32)[C@@H](CN2CCNC(=O)[C@H]2C)CN1 [Compound 191, (R)-4-(((2R,5R)-1-(2-(4-(4-fluorobenzyl)-8,8-dimethyl-7,8-dihydro-6H-pyrrolo[2,3-e][1,2,4]triazolo[1,5-a]pyridin-6-yl)-2-oxoethyl)-5-methylpiperazin-2-yl)methyl)-3-methylpiperazin-2-one] | –
70 | C[C@@H]1CN(CC(=O)N2CC(C)(C)c3c2cc(Cc2ccc(F)cc2)c2nc(S(C)(=O)=O)nn32)[C@@H](CN2CCOC[C@H]2C)CN1 [Compound 200, 1-(4-(4-fluorobenzyl)-8,8-dimethyl-2-(methylsulfonyl)-7,8-dihydro-6H-pyrrolo[2,3-e][1,2,4]triazolo[1,5-a]pyridin-6-yl)-2-((2R,5R)-5-methyl-2-(((R)-3-methylmorpholino)methyl)piperazin-1-yl)ethan-1-one] | –
65 | C[C@@H]1CN(CC(=O)N2CC(C)(C)c3c2cc(Cc2ccc(F)cc2)c2nc(C(F)F)cn32)[C@@H](CN2CCOC[C@H]2C)CN1 [Compound 122, 1-(2-(difluoromethyl)-4-(4-fluorobenzyl)-8,8-dimethyl-7,8-dihydro-6H-imidazo[1,2-a]pyrrolo[2,3-e]pyridin-6-yl)-2-((2R,5R)-5-methyl-2-(((R)-3-methylmorpholino)methyl)piperazin-1-yl)ethan-1-one] | 6
59 | C[C@@H]1CN(CC(=O)N2CC(C)(C)c3c2cc(Cc2ccc(F)cc2)c2cnc(C4CC4)n32)[C@@H](CN2CCOC[C@H]2C)CN1 [Compound 3, 1-(1-cyclopropyl-4-(4-fluorobenzyl)-8,8-dimethyl-7,8-dihydro-6H-imidazo[1,5-a]pyrrolo[2,3-e]pyridin-6-yl)-2-((2R,5R)-5-methyl-2-(((R)-3-methylmorpholino)methyl)piperazin-1-yl)ethan-1-one] | –
43 | C[C@@H]1CN(CC(=O)N2CC(C)(C)c3c2cc(Cc2ccc(F)cc2)c2nc(CC#N)nn32)[C@@H](CN2CCOC[C@H]2C)CN1 [Compound 196, 2-(4-(4-fluorobenzyl)-8,8-dimethyl-6-(2-((2R,5R)-5-methyl-2-(((R)-3-methylmorpholino)methyl)piperazin-1-yl)acetyl)-7,8-dihydro-6H-pyrrolo[2,3-e][1,2,4]triazolo[1,5-a]pyridin-2-yl)acetonitrile] | 4
29 | C[C@@H]1CN(CC(=O)N2CC(C)(C)c3c2cc(Cc2ccc(F)cc2)c2nn(CC(C)(C)O)c(=O)n32)[C@@H](CN2CC(F)(F)C[C@H]2C)CN1 [Compound 288, 6-(2-((2R,5R)-2-(((R)-4,4-difluoro-2-methylpyrrolidin-1-yl)methyl)-5-methylpiperazin-1-yl)acetyl)-4-(4-fluorobenzyl)-2-(2-hydroxy-2-methylpropyl)-8,8-dimethyl-2,6,7,8-tetrahydro-1H-pyrrolo[2,3-e][1,2,4]triazolo[4,3-a]pyridin-1-one] | –
18 | COCc1nc2c(Cc3ccc(F)cc3)cc3c(n2n1)C(C)(C)CN3C(=O)CN1C[C@@H](C)NC[C@@H]1CN1CCOC[C@H]1C [Compound 250, 1-(4-(4-fluorobenzyl)-2-(methoxymethyl)-8,8-dimethyl-7,8-dihydro-6H-pyrrolo[2,3-e][1,2,4]triazolo[1,5-a]pyridin-6-yl)-2-((2R,5R)-5-methy 1-2-(((R)-3-methylmorpholino)methyl)piperazin-1-yl)ethan-1-one] | 6.1
18 | C[C@@H]1CN(CC(=O)N2CC(C)(C)c3c2cc(Cc2ccc(F)cc2)c2nn(CC(F)(F)CO)c(=O)n32)[C@@H](CN2CCOC[C@H]2C)CN1 [Compound 242, 2-(2,2-difluoro-3-hydroxypropyl)-4-(4-fluorobenzyl)-8,8-dimethyl-6-(2-((2R,5R)-5-methyl-2-(((R)-3-methylmorpholino)methyl)piperazin-1-yl)acetyl)-2,6,7,8-tetrahydro-1H-pyrrolo[2,3-e][1,2,4]triazolo[4,3-a]pyridin-1-one] | 2.7
9 | C[C@@H]1CN(CC(=O)N2CC(C)(C)c3c2cc(Cc2ccc(F)cc2F)c2nn(CC(C)(C)O)c(=O)n32)[C@@H](CN2CCOC[C@H]2C)CN1 [Compound 274, 4-(2,4-difluorobenzyl)-2-(2-hydroxy-2-methylpropyl)-8,8-dimethyl-6-(2-((2R,5R)-5-methyl-2-(((R)-3-methylmorpholino)methyl)piperazin-1-yl)acetyl)-2,6,7,8-tetrahydro-1H-pyrrolo[2,3-e][1,2,4]triazolo[4,3-a]pyridin-1-one] | –
